According to ChEMBL document CHEMBL1155367, “Design and synthesis of new stabilized combi-triazenes for targeting solid tumors expressing the epidermal growth factor receptor (EGFR) or its closest homologue HER2” (Bioorg Med Chem Lett, 2009):
The source made the active and inactive calls. The calls are words filed in the database; no cut-off is given here.

Assays:
[1] = molecular target: Epidermal growth factor receptor (Homo sapiens, UniProt P00533); experiment: Inhibition of EGFR-mediated poly(L-glutamic acid L-tyrosine) phosphorylation
Sequence of Epidermal growth factor receptor (P00533 whole entry): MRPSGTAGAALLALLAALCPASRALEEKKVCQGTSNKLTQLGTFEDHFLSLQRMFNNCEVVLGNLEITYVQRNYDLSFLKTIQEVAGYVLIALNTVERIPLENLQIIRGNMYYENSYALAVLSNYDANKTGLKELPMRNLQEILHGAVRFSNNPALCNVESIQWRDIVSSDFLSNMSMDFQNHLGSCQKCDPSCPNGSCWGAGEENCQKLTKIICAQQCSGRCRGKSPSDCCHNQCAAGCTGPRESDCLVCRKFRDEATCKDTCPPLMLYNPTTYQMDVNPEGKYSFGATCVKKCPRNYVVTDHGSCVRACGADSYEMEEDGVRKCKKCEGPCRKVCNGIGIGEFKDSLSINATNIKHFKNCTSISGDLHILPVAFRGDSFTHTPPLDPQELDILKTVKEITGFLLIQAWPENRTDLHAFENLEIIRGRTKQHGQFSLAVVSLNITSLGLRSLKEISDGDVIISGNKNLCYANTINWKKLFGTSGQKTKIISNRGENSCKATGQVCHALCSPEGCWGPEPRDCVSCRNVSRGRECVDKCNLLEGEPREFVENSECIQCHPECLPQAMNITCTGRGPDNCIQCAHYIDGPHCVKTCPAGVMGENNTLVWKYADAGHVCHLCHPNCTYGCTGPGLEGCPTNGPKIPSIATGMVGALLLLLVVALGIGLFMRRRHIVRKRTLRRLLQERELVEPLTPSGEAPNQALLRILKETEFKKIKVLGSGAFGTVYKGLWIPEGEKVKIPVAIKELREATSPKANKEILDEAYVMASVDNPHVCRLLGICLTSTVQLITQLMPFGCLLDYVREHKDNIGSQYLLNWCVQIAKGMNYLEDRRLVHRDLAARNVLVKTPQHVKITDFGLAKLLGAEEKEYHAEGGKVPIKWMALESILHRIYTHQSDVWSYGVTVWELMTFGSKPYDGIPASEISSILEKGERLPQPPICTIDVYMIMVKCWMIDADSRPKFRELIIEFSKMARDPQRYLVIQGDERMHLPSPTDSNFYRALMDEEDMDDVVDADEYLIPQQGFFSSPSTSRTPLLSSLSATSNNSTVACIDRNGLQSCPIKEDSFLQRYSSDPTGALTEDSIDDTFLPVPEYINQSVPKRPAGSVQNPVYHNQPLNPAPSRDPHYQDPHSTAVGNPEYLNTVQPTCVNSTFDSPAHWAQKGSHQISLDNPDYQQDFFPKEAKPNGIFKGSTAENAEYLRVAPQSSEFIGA

[2] = Stability assessed as degradation to FD105 at 37 degC by fluorescence; type: physicochemical
MDA-MB-468 = experiment: Induction of DNA damage in human MDA-MB-468 cells assessed as tail movements by comet assay; type: functional, cell-based
NIH3T3 = experiment: Growth inhibition of mouse NIH/3T3 cells expressing erB2 gene; type: functional, cell-based

| IC50 [1] [nM] | Stability [2] | SMILES | Activity (MDA-MB-468) | IC50 (NIH3T3) [nM] |
| --- | --- | --- | --- | --- |
| 720 | Stable | C=COC(=O)N(C)/N=N/c1ccc2ncnc(Nc3cccc(Cl)c3)c2c1 | inactive | 2370 |
| 240 | Unstable | CC(=O)OCN(C)/N=N/c1ccc2ncnc(Nc3cccc(Cl)c3)c2c1 |  |  |
| 390 |  | CN(/N=N/c1ccc2ncnc(Nc3cccc(Cl)c3)c2c1)C(=O)OCCl | Dose-dependent effect | 4940 |

The next lines start with the compound.

| SMILES | IC50 [1] [nM] | Stability [2] | Activity (MDA-MB-468) | IC50 (NIH3T3) [nM] |
| --- | --- | --- | --- | --- |
| C=COC(=O)N(CCN(C)C)/N=N/c1ccc2ncnc(Nc3cccc(Cl)c3)c2c1 | 180 |  | Dose-dependent effect | 2280 |
| CN(/N=N/c1ccc2ncnc(Nc3cccc(Cl)c3)c2c1)C(=O)Oc1ccc([N+](=O)[O-])cc1 | 770 | Stable | Dose-dependent effect | 3790 |
| CC(=O)OCOC(=O)N(C)/N=N/c1ccc2ncnc(Nc3cccc(Cl)c3)c2c1 | 630 | Stable | Dose-dependent effect | 1500 |
